{
  "source": "patent US20230241044A1",
  "about": "“TREATMENT FOR PSORIASIS AND SKIN INFLAMMATORY DISEASES” (ZYDUS LIFESCIENCES LIMITED, priority 2020, published 2023)",
  "key": {"[1]": {"system": "IMQ-induced psoriasis-like skin lesions in mice", "experiment": "Imiquimod-induced psoriasis in mice, topical treatment", "type": "in vivo, male C57 mice", "details": "topical 5% solution", "method": "The 8 to 10 week old male C57 mice (18-20 g) received a daily topical dose of commercially available Imiquimod (IMQ) cream (5%, Imiquad;) on the shaved back and the right ear for 5 consecutive days, translating in a daily dose of 3.125 mg of the active compound to establish a model of IMQ-induced psoriasis. To examine the efficacy of topical solution of compound of formula (Ia), mice were randomly divided into 3 groups: IMQ-induced model group (IMQ) and IMQ + 5% compound of formula (Ia) solution and control group. Treatment was started on day 1 after the topical application of IMQ and continued upto day 5. All animals were assessed for the severity of the psoriasis-like skin condition, using 3 elements of the Psoriasis Area Severity Index (PASI), to assign a score of 0-4 (0, none; 1, mild; 2, moderate; 3, severe; 4, very severe) for each of the parameters erythema, scaling and thickness. The cumulative score (erythema plus scaling plus thickness) served to indicate the severity of inflammation (scale 0-12). Ear thickness was measured every day using thickness meter."}, "[2]": {"system": "Mannan-induced psoriasis in mice", "experiment": "Mannan-induced psoriasis in mice, topical treatment", "type": "in vivo, male C57 mice", "details": "topical 2.5% solution, day 5, FIG. 3", "method": "The 8- to 10-week-old male C57 mice (18-20 g) received a single dose of mannan from Saccharomyces cerevisiae (20 mg/kg, intraperitoneal route, dissolved in saline). To examine the efficacy of topical solution of desidustat, mice were randomly divided into 3 groups: Normal control, mannan control- model group (MAN control), and mannan (MAN) + 2.5% compound of formula (Ia) solution. Normal control animals were given normal saline instead of mannan. Treatment was started on day 0 along with injection of mannan and continued up to day 5. Right ear thickness was measured every day using thickness meter."}, "[3]": {"system": "HIF", "details": "animal model of anemia; Jain et al., 2019; Joharapurkar et al., 2018; cited from earlier work"}, "[4]": {"details": "clinical trials; cited from earlier work"}},
  "data": [
    {"smiles": "O=C(O)CNC(=O)c1c(O)c2ccccc2n(OCC2CC2)c1=O", "note": "[compound of formula (Ia), Desidustat]", "values": [
      {"measurement": "reduction of back skinfold thickness compared to IMQ", "setting": "[1]; FIG. 2B", "result": "15.5 ± 4.0", "unit": "%"},
      {"measurement": "PASI score decreased to, compared with IMQ-control", "setting": "[1]; cumulative score, FIG. 1D", "result": "41.9 ± 7.6", "unit": "%"},
      {"measurement": "reduction of erythema score (second mention) compared with IMQ-control", "setting": "[1]; day 1 to day 5, FIG. 1A-C", "result": "63.6 ± 11.5", "unit": "%"},
      {"measurement": "reduction of erythema score compared with IMQ-control", "setting": "[1]; day 1 to day 5, FIG. 1A-C", "result": "46.2 ± 7.7", "unit": "%"},
      {"measurement": "reduction of skin thickness score compared with IMQ-control", "setting": "[1]; day 1 to day 5, FIG. 1A-C", "result": "26.3 ± 10.4", "unit": "%"},
      {"measurement": "thickening of the ear reduced to, compared to IMQ-control", "setting": "[1]; right ear, FIG. 2A", "result": "30.8 ± 2.6", "unit": "%"},
      {"measurement": "reduction of right ear thickness compared to MAN control group", "setting": "[2]", "result": "15.8 ± 2.5", "unit": "%"},
      {"measurement": "effect on HIF and erythropoiesis", "setting": "[3]", "result": "stabilizes HIF and thus induces erythropoiesis"},
      {"measurement": "effect on haemoglobin", "setting": "[4]", "result": "improves haemoglobin"}
    ]}
  ]
}
